In the experiment the target is T1, PD-1/PD-L1 (Homo sapiens, UniProt Q9NZQ7).
T1 construct: made in house; host or cells: HEK293T
T1 sequence (Q9NZQ7 with tags, fused parts or gaps): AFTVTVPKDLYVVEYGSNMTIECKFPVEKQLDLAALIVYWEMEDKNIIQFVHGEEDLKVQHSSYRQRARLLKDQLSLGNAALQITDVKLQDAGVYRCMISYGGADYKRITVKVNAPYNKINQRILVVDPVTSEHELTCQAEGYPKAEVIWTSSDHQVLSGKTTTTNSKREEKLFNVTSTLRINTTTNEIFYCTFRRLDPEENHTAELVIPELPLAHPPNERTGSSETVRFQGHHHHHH
In words: PD-1/PD-L1 Homogenous Time-Resolved Fluorescence (HTRF) binding assay. As to conditions: PD-L1-His 10 nM, PD-1-Ig 20 nM; value given as range class; read-out: Range or IC50. The method in brief:
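Binding measured in dPBS with 0.1% BSA and 0.05% Tween-20, detected by HTRF with europium cryptate anti-Ig (1 nM final) and APC anti-His (20 nM final) added over the binding reaction. Counter-assays used human PD-1-Ig/PD-L2-His (20 and 5 nM) and CD80-His/PD-L1-Ig (100 and 10 nM).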
For orientation: Time-resolved FRET reads energy transfer from a long-lived donor to a nearby acceptor.
For orientation: IC50 means the concentration needed to halve the response being measured. As for `Cc1c(COc2cc(OCc3cncc(C#N)c3)c(CN[C@H](CO)C(=O)O)cc2Cl)cccc1-c1cccc(OCCCN2CC[C@@H](O)C2)c1Cl` [Example 1512, (R)-2-((5-chloro-4-((2′-chloro-3′-(3-((R)-3-hydroxypyrrolidin-1-yl)propoxy)-2-methyl-[1,1′-biphenyl]-3-yl)methoxy)-2-((5-cyanopyridin-3-yl)methoxy)benzyl)amino)-3-hydroxypropanoic acid], the IC50 is 0.21 to 10 nM.
With `Cc1c(COc2cc(OCc3cncc(S(C)(=O)=O)c3)c(CN3CCCC[C@H]3C(=O)O)cc2Cl)cccc1-c1cccc(OCCCN2CC[C@@H](O)C2)c1Cl` [Example 1513, (S)-1-(5-chloro-4-((2′-chloro-3′-(3-((R)-3-hydroxypyrrolidin-1-yl)propoxy)-2-methyl-[1,1′-biphenyl]-3-yl)methoxy)-2-((5-(methylsulfonyl)pyridin-3-yl)methoxy)benzyl)piperidine-2-carboxylic acid], the IC50 was in the range of 10 to 100 nM.
As to `Cc1c(COc2cc(OCc3cncc(C#N)c3)c(CN[C@@](C)(CO)C(=O)O)cc2Cl)cccc1-c1cccc(OCCCN2CC[C@@H](O)C2)c1C(F)F` [Example 1514, (S)-2-((5-chloro-2-((5-cyanopyridin-3-yl)methoxy)-4-((2′-(difluoromethyl)-3′-(3-((R)-3-hydroxypyrrolidin-1-yl)propoxy)-2-methyl-[1,1′-biphenyl]-3-yl)methoxy)benzyl)amino)-3-hydroxy-2-methylpropanoic acid], the concentration for half-maximal inhibition (IC50) is 0.21 to 10 nM.
For `Cc1c(COc2cc(OCc3cncc(C#N)c3)c(CO)cc2Cl)cccc1-c1cccc(OCCCN2CC[C@@H](O)C2)c1C(F)F` [Example 1515, (R)-5-((4-chloro-5-((2′-(difluoromethyl)-3′-(3-(3-hydroxypyrrolidin-1-yl)propoxy)-2-methyl-[1,1′-biphenyl]-3-yl)methoxy)-2-(hydroxymethyl)phenoxy)methyl)nicotinonitrile], the half-inhibitory concentration (IC50) was 10 to 100 nM.
As for `Cc1c(COc2cc(OCc3cncc(C#N)c3)c(CN[C@@](C)(CO)C(=O)O)cc2Cl)cccc1-c1cccc(OCCCN2CCC(O)(CC(=O)O)C2)c1C` (stereo partly drawn) [Example 1517, (2S)-2-((4-((3′-(3-(3-(carboxymethyl)-3-hydroxypyrrolidin-1-yl)propoxy)-2,2′-dimethyl-[1,1′-biphenyl]-3-yl)methoxy)-5-chloro-2-((5-cyanopyridin-3-yl)methoxy)benzyl)amino)-3-hydroxy-2-methylpropanoic acid], the IC50 is 0.21 to 10 nM.
On to `Cc1c(COc2cc(OCc3cncc(C(N)=O)c3)c(CN[C@@](C)(CO)C(=O)O)cc2Cl)cccc1-c1cccc(OCCCN2CCC(O)(CC(=O)O)C2)c1Cl` (stereo partly drawn) [Example 1518, (2S)-2-((2-((5-carbamoylpyridin-3-yl)methoxy)-4-((3′-(3-(3-(carboxymethyl)-3-hydroxypyrrolidin-1-yl)propoxy)-2′-chloro-2-methyl-[1,1′-biphenyl]-3-yl)methoxy)-5-chlorobenzyl)amino)-3-hydroxy-2-methylpropanoic acid], for which the concentration for half-maximal inhibition (IC50) is 10 to 100 nM.
As for `Cc1c(COc2cc(OCc3cncc(C#N)c3)c(CN3CCCC[C@H]3C(=O)O)cc2Cl)cccc1-c1cccc(OCCCN2CC[C@@H](O)C2)c1F` [Example 1520, (S)-1-(5-chloro-2-((5-cyanopyridin-3-yl)methoxy)-4-((2′-fluoro-3′-(3-((R)-3-hydroxypyrrolidin-1-yl)propoxy)-2-methyl-[1,1′-biphenyl]-3-yl)methoxy)benzyl)piperidine-2-carboxylic acid], the IC50 is 0.21 to 10 nM.
With `Cc1c(COc2cc(OCc3cncc(C#N)c3)c(CN[C@@](C)(CO)C(=O)O)cc2Cl)cccc1-c1cccc(O[C@@H](C)CCN2CC[C@@H](O)C2)c1Cl` [Example 1521, (S)-2-((5-chloro-4-((2′-chloro-3′-(((S)-4-((R)-3-hydroxypyrrolidin-1-yl)butan-2-yl)oxy)-2-methyl-[1,1′-biphenyl]-3-yl)methoxy)-2-((5-cyanopyridin-3-yl)methoxy)benzyl)amino)-3-hydroxy-2-methylpropanoic acid], the IC50 is 0.21 to 10 nM.

(Values after US10745382B2 (BRISTOL-MYERS SQUIBB COMPANY, priority 2015, dated 2020).)
